# Measured values: patent US12371454B2, “Cyclic peptide compound having Kras inhibitory action” (priority 2019, dated 2025)
# Starred links: 1 amine or outer side, 2 acyl side, 3 side chain; linkers in the order of their positions; H or OH if unused. Positions of bridges follow the written chain, without caps; N, C: chain ends. Non-standard residues stand in square brackets, D forms with d. Residues, ends and D or L forms follow the SMILES beside them. *: point of attachment. hPhe(3-Cl-4-CF3) = N[C@@H](CCc1ccc(C(F)(F)F)c(Cl)c1)C(=O)O; hPhe(3-F,4-CF3) = N[C@@H](CCc1ccc(C(F)(F)F)c(F)c1)C(=O)O; X38 = CN([C@@H](Cc1cccc(OC(F)(F)F)c1)C(=O)[*:2])[*:1]; X23 = CN([C@@H](Cc1ccccc1OC(F)(F)F)C(=O)[*:2])[*:1]; NPrAsp = CCCN([C@@H](CC(=O)[*:3])C(=O)[*:2])[*:1]; hPhe(4-CF3) = N[C@@H](CCc1ccc(C(F)(F)F)cc1)C(=O)O; 3Oxa8azabicyclo(3.2.1)octane = C1CC2COCC1N2*; NMeAbu(4,4,4-F3) = CN[C@@H](CC(F)(F)F)C(=O)O; NMePhe(4-Me) = CN[C@@H](Cc1ccc(C)cc1)C(=O)O; X6 = CCN([C@@H](CC1CCCCC1)C(=O)[*:2])[*:1]; NMePhe(2-Me) = CN[C@@H](Cc1ccccc1C)C(=O)O; NMedβ3hAla = C[C@H](CC(=O)[*:2])N(C)[*:1]; NMeAla(cPent) = CN[C@@H](CC1CCCC1)C(=O)O; NMePhe(2-F) = CN[C@@H](Cc1ccccc1F)C(=O)O; NMeGly(cPent) = CN[C@H](C(=O)O)C1CCCC1; NMeCha = CN[C@@H](CC1CCCCC1)C(=O)O; NMeChg = CN[C@H](C(=O)O)C1CCCCC1; NMeI = CC[C@H](C)[C@H](NC)C(=O)O; NMeD = CN[C@@H](CC(=O)O)C(=O)O; NMeL = CN[C@@H](CC(C)C)C(=O)O; NMeV = CN[C@H](C(=O)O)C(C)C; d(β3hA) = C[C@@H](N)CC(=O)O; NMeAbu = CC[C@H](NC)C(=O)O; NMeS = CN[C@@H](CO)C(=O)O; Morpholide = C1CN(*)CCO1; NMeA = CN[C@@H](C)C(=O)O; Piperidide = C1CCN(*)CC1; Pyrrolidide = C1CCN(*)C1; Ac5c = NC1(C(=O)O)CCCC1; Aze = O=C(O)[C@@H]1CCN1; X1 = FC1(F)CN(*)CC1(F)F; Ac3c = NC1(C(=O)O)CC1; X14 = CC1(C)CCN(*)C1; Sar = CNCC(=O)O; Propyl = CCC*
# Tests used:
# [1] = molecular target: T1, Kras and SOS1 (biotin-tagged human Kras loaded with GDP, His-tagged human SOS1) (Homo sapiens, UniProt P01116, G12D); assay: Protein-protein interaction inhibition between Kras and SOS1 (KrasGl2D-SOS PPI) using AlphaScreen; type: binding; conditions: AlphaScreen; biotin-tagged human Kras loaded with GDP, His-tagged human SOS1; read-out: KRAS G12D-SOS PPI IC50
# T1 construct: made in house; host or cells: E. coli (stated for Kras only)
# Outline: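 Kras was produced in E. coli, purified, then loaded with GDP. It was paired via streptavidin acceptor beads with His-SOS1 held on nickel donor beads, and proximity signal at 520-620 nm was read after 680 nm illumination.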
# [2] = tested on: Human pancreatic cancer cell line AsPC-1; assay: Measurement of AsPC-1 cell growth inhibition (AsPC-1 CGI); type: cell-based; conditions: 96 h
# Outline: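 AsPC-1 cells in 15% FBS RPMI-1640 were exposed to test compound for 96 hours at 37° C, with CellTiter-Glo as endpoint.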
# T1 sequence (P01116 1-188 isoform P01116-2 G12D): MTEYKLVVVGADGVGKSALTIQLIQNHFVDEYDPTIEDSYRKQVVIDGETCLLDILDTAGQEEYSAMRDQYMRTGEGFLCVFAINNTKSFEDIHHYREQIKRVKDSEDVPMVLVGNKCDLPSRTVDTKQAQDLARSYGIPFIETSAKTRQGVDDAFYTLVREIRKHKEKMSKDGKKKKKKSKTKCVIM
Compound,IC50 [1] [nM],IC50 [2] [nM]
CC[C@H](C)[C@@H]1NC(=O)[C@H](CC(C)C)N(C)C(=O)C[C@@H](C(=O)N2C3CCC2COC3)N(C)C(=O)[C@H](C2CCCCC2)N(C)C(=O)C2(CCCC2)NC(=O)[C@@H]2CCCN2C(=O)[C@H](CCc2ccc(C(F)(F)F)c(Cl)c2)NC(=O)CN(C)C(=O)[C@H](CC2CCCC2)N(C)C(=O)CN(C)C(=O)CN(C)C1=O [Compound 1976] ([NMeL]I[Sar][Sar][NMeAla(cPent)][Sar][hPhe(3-Cl-4-CF3)]P[Ac5c][NMeChg][NMeD]-{3Oxa8azabicyclo(3.2.1)octane}; lactam N-11),1.5,100 to 500
CCCOC[C@H]1C(=O)N(C)CC(=O)N[C@@H](CCc2ccc(C(F)(F)F)c(Cl)c2)C(=O)N2CCC[C@H]2C(=O)NC2(CCCC2)C(=O)N(C)[C@@H](C2CCCCC2)C(=O)N(C)[C@H](C(=O)N2CCCC2)CC(=O)N(C)[C@@H](CC)C(=O)N[C@@H]([C@@H](C)CC)C(=O)N(C)CC(=O)N(C)CC(=O)N1C [Compound 1929] ([NMeAbu]I[Sar][Sar][NMeS](Propyl)[Sar][hPhe(3-Cl-4-CF3)]P[Ac5c][NMeChg][NMeD]-Pyrrolidide; lactam N-11),0.61,100 to 500
CC[C@H](C)[C@@H]1NC(=O)[C@H](CC(C)C)N(C)C(=O)C[C@@H](C(=O)N2CCCCC2)N(C)C(=O)[C@H](C(C)C)N(C)C(=O)C2(CCCC2)NC(=O)[C@@H]2CCCN2C(=O)[C@H](CCc2ccc(C(F)(F)F)c(Cl)c2)NC(=O)CN(C)C(=O)[C@H](Cc2cccc(OC(F)(F)F)c2)N(C)C(=O)CN(C)C(=O)CN(C)C1=O [Compound 1640] ([NMeL]I[Sar][Sar][X38][Sar][hPhe(3-Cl-4-CF3)]P[Ac5c][NMeV][NMeD]-Piperidide; lactam N-11),6.6,100 to 500
CC[C@H](C)[C@@H]1NC(=O)[C@H](CC(C)C)N(C)C(=O)C[C@@H](C)NC(=O)[C@H](C(C)C)N(C)C(=O)C2(CCCC2)NC(=O)[C@@H]2CCCN2C(=O)[C@H](CCc2ccc(C(F)(F)F)c(Cl)c2)NC(=O)CN(C)C(=O)[C@H](CC2CCCCC2)N(C)C(=O)CN(C)C(=O)CN(C)C1=O [Compound 1457] (cyclo([Ac5c][NMeV][d(β3hA)][NMeL]I[Sar][Sar][NMeCha][Sar][hPhe(3-Cl-4-CF3)]P)),11,100 to 500
CC[C@H](C)[C@@H]1NC(=O)[C@H](CC(C)C)N(C)C(=O)C[C@@H](C(=O)N2CC(F)(F)C(F)(F)C2)N(C)C(=O)[C@H](C2CCCCC2)N(C)C(=O)C2(CCCC2)NC(=O)[C@@H]2CCCN2C(=O)[C@H](CCc2ccc(C(F)(F)F)c(Cl)c2)NC(=O)CN(C)C(=O)[C@H](CC2CCCCC2)N(C)C(=O)CN(C)C(=O)CN(C)C1=O [Compound 1207] ([NMeL]I[Sar][Sar][NMeCha][Sar][hPhe(3-Cl-4-CF3)]P[Ac5c][NMeChg][NMeD]-X1; lactam N-11),2.7,100 to 500
CC[C@H](C)[C@@H]1NC(=O)[C@H](CC(C)C)N(C)C(=O)C[C@@H](C(=O)N(C)C)N(C)C(=O)[C@H]([C@@H](C)CC)N(C)C(=O)C2(CCCC2)NC(=O)[C@H](Cc2ccccc2F)N(C)C(=O)[C@H](CCc2ccc(C(F)(F)F)c(Cl)c2)NC(=O)CN(C)C(=O)[C@H](Cc2ccc(C)cc2)N(C)C(=O)[C@@H]2CCN2C(=O)[C@H](C)N(C)C1=O [Compound 616] ([NMeL]I[NMeA][Aze][NMePhe(4-Me)][Sar][hPhe(3-Cl-4-CF3)][NMePhe(2-F)][Ac5c][NMeI][NMeD]-NMe2; lactam N-11),3.9,50 to 100
"CC[C@H](C)[C@@H]1NC(=O)[C@H](CC(F)(F)F)N(C)C(=O)C[C@@H](C(=O)N2CCCC2)N(C)C(=O)[C@H](C2CCCCC2)N(C)C(=O)C2(CCCC2)NC(=O)[C@@H]2CCCN2C(=O)[C@H](CCc2ccc(C(F)(F)F)c(Cl)c2)NC(=O)CN(C)C(=O)[C@H](CC2CCCC2)N(C)C(=O)CN(C)C(=O)CN(C)C1=O [Compound 326] ([NMeAbu(4,4,4-F3)]I[Sar][Sar][NMeAla(cPent)][Sar][hPhe(3-Cl-4-CF3)]P[Ac5c][NMeChg][NMeD]-Pyrrolidide; lactam N-11)",0.7,50 to 100
CC[C@H](C)[C@@H]1NC(=O)[C@H](CC(C)C)N(C)C(=O)C[C@@H](C(=O)N2CCCCC2)N(C)C(=O)[C@H](C(C)C)N(C)C(=O)C2(CCCC2)NC(=O)[C@@H]2CCCN2C(=O)[C@H](CCc2ccc(C(F)(F)F)c(Cl)c2)NC(=O)CN(C)C(=O)[C@H](Cc2ccccc2OC(F)(F)F)N(C)C(=O)CN(C)C(=O)CN(C)C1=O [Compound 1641] ([NMeL]I[Sar][Sar][X23][Sar][hPhe(3-Cl-4-CF3)]P[Ac5c][NMeV][NMeD]-Piperidide; lactam N-11),8.3,100 to 500
CC[C@H](C)[C@@H]1NC(=O)[C@H](CC(C)C)N(C)C(=O)C[C@@H](C)N(C)C(=O)[C@H](C(C)C)N(C)C(=O)C2(CCCC2)NC(=O)[C@@H]2CCCN2C(=O)[C@H](CCc2ccc(C(F)(F)F)c(Cl)c2)NC(=O)CN(C)C(=O)[C@H](Cc2ccccc2C)N(C)C(=O)CN(C)C(=O)CN(C)C1=O [Compound 1550] (cyclo([Ac5c][NMeV][NMedβ3hAla][NMeL]I[Sar][Sar][NMePhe(2-Me)][Sar][hPhe(3-Cl-4-CF3)]P)),19,50 to 100
CC[C@H](C)[C@@H]1NC(=O)[C@H](CC(C)C)N(C)C(=O)C[C@@H](C(=O)N2CCCCC2)N(C)C(=O)[C@H](C2CCCCC2)N(C)C(=O)C2(CCCC2)NC(=O)[C@@H]2CCCN2C(=O)[C@H](CCc2ccc(C(F)(F)F)c(Cl)c2)NC(=O)CN(C)C(=O)[C@H](CC2CCCCC2)N(CC)C(=O)CN(C)C(=O)CN(C)C1=O [Compound 543] ([NMeL]I[Sar][Sar][X6][Sar][hPhe(3-Cl-4-CF3)]P[Ac5c][NMeChg][NMeD]-Piperidide; lactam N-11),0.56,50 to 100
"CC[C@H](C)[C@@H]1NC(=O)[C@H](CC(C)C)N(C)C(=O)C[C@@H](C(=O)N2CCOCC2)N(C)C(=O)[C@H]([C@@H](C)CC)N(C)C(=O)C2(CCCC2)NC(=O)[C@@H]2CCCN2C(=O)[C@H](CCc2ccc(C(F)(F)F)c(F)c2)NC(=O)CN(C)C(=O)[C@H](C2CCCC2)N(C)C(=O)[C@@H]2CCN2C(=O)[C@H](C)N(C)C1=O [Compound 1098] ([NMeL]I[NMeA][Aze][NMeGly(cPent)][Sar][hPhe(3-F,4-CF3)]P[Ac5c][NMeI][NMeD]-Morpholide; lactam N-11)",5.6,20 to 50
CC[C@H](C)[C@@H]1NC(=O)[C@H](CC(C)C)N(C)C(=O)C[C@@H](C(=O)N(C)C)N(C)C(=O)[C@H](C2CCCCC2)N(C)C(=O)C2(CCCC2)NC(=O)[C@@H]2CCCN2C(=O)[C@H](CCc2ccc(C(F)(F)F)c(Cl)c2)NC(=O)CN(C)C(=O)[C@H](Cc2ccc(C)cc2)N(C)C(=O)CN(C)C(=O)CN(C)C1=O [Compound 1762] ([NMeL]I[Sar][Sar][NMePhe(4-Me)][Sar][hPhe(3-Cl-4-CF3)]P[Ac5c][NMeChg][NMeD]-NMe2; lactam N-11),0.37,20 to 50
CCCN1C(=O)[C@H](C2CCCC2)N(C)C(=O)C2(CCCC2)NC(=O)[C@@H]2CCCN2C(=O)[C@H](CCc2ccc(C(F)(F)F)c(Cl)c2)NC(=O)CN(C)C(=O)[C@H](CC2CCCCC2)N(C)C(=O)CN(C)C(=O)CN(C)C(=O)[C@H]([C@@H](C)CC)NC(=O)[C@H](C)N(C)C(=O)C[C@H]1C(=O)N1CCCCC1 [Compound 56] ([NMeA]I[Sar][Sar][NMeCha][Sar][hPhe(3-Cl-4-CF3)]P[Ac5c][NMeGly(cPent)][NPrAsp]-Piperidide; lactam N-11),2.3,20 to 50
CC[C@H](C)[C@@H]1NC(=O)[C@H](CC(C)C)N(C)C(=O)C[C@@H](C(=O)N2CCCCC2)N(C)C(=O)[C@H](C2CCCCC2)N(C)C(=O)C2(CC2)NC(=O)[C@@H]2CCCN2C(=O)[C@H](CCc2ccc(C(F)(F)F)c(Cl)c2)NC(=O)CN(C)C(=O)[C@H](CC2CCCCC2)N(C)C(=O)CN(C)C(=O)CN(C)C1=O [Compound 1845] ([NMeL]I[Sar][Sar][NMeCha][Sar][hPhe(3-Cl-4-CF3)]P[Ac3c][NMeChg][NMeD]-Piperidide; lactam N-11),0.84,100 to 500
CC[C@H](C)[C@@H]1NC(=O)[C@H](C)N(C)C(=O)C[C@@H](C(=O)N2CCCCC2)N(C)C(=O)[C@H](C2CCCCC2)N(C)C(=O)C2(CCCC2)NC(=O)[C@@H]2CCCN2C(=O)[C@H](CCc2ccc(C(F)(F)F)cc2)NC(=O)CN(C)C(=O)[C@H](CC2CCCCC2)N(C)C(=O)CN(C)C(=O)CN(C)C1=O [Compound 72] ([NMeA]I[Sar][Sar][NMeCha][Sar][hPhe(4-CF3)]P[Ac5c][NMeChg][NMeD]-Piperidide; lactam N-11),0.47,100 to 500
CC[C@H](C)[C@@H]1NC(=O)[C@H](CC(C)C)N(C)C(=O)C[C@@H](C(=O)N2CCC(C)(C)C2)NC(=O)[C@H]([C@@H](C)CC)N(C)C(=O)C2(CCCC2)NC(=O)[C@@H]2CCCN2C(=O)[C@H](CCc2ccc(C(F)(F)F)c(Cl)c2)NC(=O)CN(C)C(=O)[C@H](CC2CCCCC2)N(C)C(=O)CN(C)C(=O)CN(C)C1=O [Compound 1273] ([NMeL]I[Sar][Sar][NMeCha][Sar][hPhe(3-Cl-4-CF3)]P[Ac5c][NMeI]D-X14; lactam N-11),7.2,100 to 500
CC[C@H](C)[C@@H]1NC(=O)[C@H](CC(C)C)N(C)C(=O)C[C@@H](C)N(C)C(=O)[C@H](C2CCCCC2)N(C)C(=O)C2(CCCC2)NC(=O)[C@@H]2CCCN2C(=O)[C@H](CCc2ccc(C(F)(F)F)c(Cl)c2)NC(=O)CN(C)C(=O)[C@H](Cc2ccc(C)cc2)N(C)C(=O)CN(C)C(=O)CN(C)C1=O [Compound 1682] (cyclo([Ac5c][NMeChg][NMedβ3hAla][NMeL]I[Sar][Sar][NMePhe(4-Me)][Sar][hPhe(3-Cl-4-CF3)]P)),2.4,100 to 500
